In ChEMBL document CHEMBL1201862, “PubChem BioAssay data set” (2004):
“And” between values parts separate entries of the source, which are not always exact repeats. Identical values can stand only once. The source made the active and inactive calls.

Tests used:
[1] = target: T1, Cytochrome P450 1A2 (Homo sapiens, UniProt P05177);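 also: PubChem cytochrome P450 panel assay, CYP1A2 panel member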
T1 sequence (P05177 whole entry): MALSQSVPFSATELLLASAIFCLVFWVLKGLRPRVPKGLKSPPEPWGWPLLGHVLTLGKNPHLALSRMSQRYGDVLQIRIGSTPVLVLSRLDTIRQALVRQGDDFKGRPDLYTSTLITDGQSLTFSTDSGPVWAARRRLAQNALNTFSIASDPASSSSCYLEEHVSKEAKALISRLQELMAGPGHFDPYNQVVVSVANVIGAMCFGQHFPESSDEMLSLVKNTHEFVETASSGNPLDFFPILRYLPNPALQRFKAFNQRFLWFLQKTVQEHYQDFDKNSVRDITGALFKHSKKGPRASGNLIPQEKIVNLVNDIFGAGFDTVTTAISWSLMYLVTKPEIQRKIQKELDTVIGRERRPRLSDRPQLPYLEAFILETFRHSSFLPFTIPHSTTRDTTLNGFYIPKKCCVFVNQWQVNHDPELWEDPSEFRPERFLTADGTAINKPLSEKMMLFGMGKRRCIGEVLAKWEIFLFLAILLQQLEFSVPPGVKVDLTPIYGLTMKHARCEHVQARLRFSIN

[2] = target: T2, Delta-type opioid receptor (Homo sapiens, UniProt P41143); test: HTS Image-Based Screen for Antagonists of the DOR Receptor. [Related pubchem assays (depositor defined):AID1777, AID1785, AID1786, AID2133]; type: functional
T2 sequence (P41143 whole entry): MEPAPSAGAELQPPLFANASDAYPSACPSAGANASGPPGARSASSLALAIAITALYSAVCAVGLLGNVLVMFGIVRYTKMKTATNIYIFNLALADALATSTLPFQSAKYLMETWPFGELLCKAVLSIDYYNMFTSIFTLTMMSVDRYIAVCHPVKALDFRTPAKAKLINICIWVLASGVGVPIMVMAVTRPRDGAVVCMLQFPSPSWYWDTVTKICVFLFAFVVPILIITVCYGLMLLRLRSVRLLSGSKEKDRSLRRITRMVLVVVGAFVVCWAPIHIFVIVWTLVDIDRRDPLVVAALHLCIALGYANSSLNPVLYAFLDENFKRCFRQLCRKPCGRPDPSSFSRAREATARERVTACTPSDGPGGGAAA

[3] = target: T3, Mu-type opioid receptor (Homo sapiens, UniProt P35372); test: HTS Image-Based Screen for Agonists of the MOR Receptor. [Related pubchem assays (depositor defined):AID1777, AID1785, AID1786, AID2133]; type: functional
T3 sequence (P35372 whole entry): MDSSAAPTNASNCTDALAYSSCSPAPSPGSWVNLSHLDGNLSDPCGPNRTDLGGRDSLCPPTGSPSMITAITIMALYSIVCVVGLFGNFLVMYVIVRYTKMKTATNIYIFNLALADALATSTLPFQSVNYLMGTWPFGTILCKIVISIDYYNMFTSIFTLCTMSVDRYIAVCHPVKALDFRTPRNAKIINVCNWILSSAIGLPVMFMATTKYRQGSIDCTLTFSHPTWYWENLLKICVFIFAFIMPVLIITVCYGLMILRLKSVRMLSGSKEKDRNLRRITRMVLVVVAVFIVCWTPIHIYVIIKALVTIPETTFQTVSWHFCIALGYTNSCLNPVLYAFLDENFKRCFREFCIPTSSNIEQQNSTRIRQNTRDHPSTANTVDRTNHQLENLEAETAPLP

[4] = target: T2, Delta-type opioid receptor; test: HTS Image-Based Screen for Agonists of the DOR Receptor. [Related pubchem assays (depositor defined):AID1777, AID1786, AID2133]; type: functional
[5] = target: T4, Kappa-type opioid receptor (Homo sapiens, UniProt P41145); type: functional
T4 sequence (P41145 whole entry): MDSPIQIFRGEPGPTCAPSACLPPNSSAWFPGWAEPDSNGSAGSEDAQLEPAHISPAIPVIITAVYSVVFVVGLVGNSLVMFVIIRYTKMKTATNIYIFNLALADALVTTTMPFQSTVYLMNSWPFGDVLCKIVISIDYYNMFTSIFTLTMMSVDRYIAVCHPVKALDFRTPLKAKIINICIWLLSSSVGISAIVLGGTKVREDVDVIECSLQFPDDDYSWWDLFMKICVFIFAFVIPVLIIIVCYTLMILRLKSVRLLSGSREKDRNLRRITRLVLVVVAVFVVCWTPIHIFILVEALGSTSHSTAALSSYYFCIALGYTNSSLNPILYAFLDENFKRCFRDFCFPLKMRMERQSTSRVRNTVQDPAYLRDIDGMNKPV

[6] = target: T4, Kappa-type opioid receptor; type: functional; remark: listed apart in the source
[7] = target: T4, Kappa-type opioid receptor; test: SAR analysis of small molecule agonists of the kappa opioid receptor via a luminescent beta-arrestin assay. [Related pubchem assays (depositor defined):AID1777, AID1786, AID1966, AID2133, AID2136, AID2348, AID2352, AID2357, AID2359, AID2370, AID2420, AID2478, AID2491, AID2492, AID2493, AID2497, AID2498, AID2500, AID449737, AID488822, AID488842]; type: functional
[8] = target: T3, Mu-type opioid receptor; test: MOR agonists by imaging, SAR follow-up, image-based (AID 2352); type: functional
[9] = target: T2, Delta-type opioid receptor; test: DOR agonists, SAR follow-up, image-based (AID 2370); type: functional
[10] = target: T4, Kappa-type opioid receptor; test: KOR antagonists by imaging, SAR follow-up, image-based (AID 2348); type: functional
[11] = target: T3, Mu-type opioid receptor; test: MOR antagonists, SAR follow-up, image-based (AID 2420); type: functional;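 also: compounds added before stimulation of receptor with agonist DAMGO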
[12] = target: T4, Kappa-type opioid receptor; test: KOR agonist analogs, imaging readout, SAR follow-up, image-based (AID 2359); type: functional
[13] = target: T2, Delta-type opioid receptor; test: DOR antagonists, SAR follow-up, image-based (AID 2357); type: functional
[14] = target: G-protein coupled receptor 35 (Homo sapiens, UniProt Q9HC97); test: GPR35 antagonists blocking zaprinast-driven arrestin recruitment, primary screen, imaging, U2OS, beta-arrestin-GFP, zaprinast agonist (AID 2058); type: functional;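 also: antagonist potency meaning inhibition of agonist-induced arrestin redistribution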
Sequence of G-protein coupled receptor 35 (Q9HC97 whole entry): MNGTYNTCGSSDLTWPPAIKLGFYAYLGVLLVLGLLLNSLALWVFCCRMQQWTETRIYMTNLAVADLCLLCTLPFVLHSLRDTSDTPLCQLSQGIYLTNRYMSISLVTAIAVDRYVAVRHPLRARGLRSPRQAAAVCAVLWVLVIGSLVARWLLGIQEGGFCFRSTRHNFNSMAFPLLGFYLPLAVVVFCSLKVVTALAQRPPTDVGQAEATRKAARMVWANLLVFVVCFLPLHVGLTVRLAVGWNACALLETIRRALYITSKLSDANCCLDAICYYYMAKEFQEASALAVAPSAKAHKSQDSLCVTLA

[15] = inhibitors of intracellular T. cruzi replication, confirmation, NIH3T3 host cells, beta-gal luminescence (AID 2044); type: functional, cell-based;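 also: intracellular parasites grown in NIH/3T3 mouse fibroblasts as host cells; luminescent beta-galactosidase reporter signal from transgenic T. cruzi replicating inside host cells; inhibitors lower the luminescence signal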
[16] = cytotoxicity toward NIH3T3 fibroblasts, dose response, counter-screen, cell-based, ATP luminescence, mouse fibroblasts (AID 2010); type: functional;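 also: cells exposed to compound for about 90 hours before reading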
[17] = target: DNA dC->dU-editing enzyme APOBEC-3A (Homo sapiens, UniProt P31941); test: Dose Response confirmation of small molecule APOBEC3A DNA Deaminase Inhibitors via a fluorescence-based single-stranded DNA deaminase assay. [Related pubchem assays (depositor defined):AID493011, AID493024]; type: functional
Sequence of DNA dC->dU-editing enzyme APOBEC-3A (P31941 whole entry): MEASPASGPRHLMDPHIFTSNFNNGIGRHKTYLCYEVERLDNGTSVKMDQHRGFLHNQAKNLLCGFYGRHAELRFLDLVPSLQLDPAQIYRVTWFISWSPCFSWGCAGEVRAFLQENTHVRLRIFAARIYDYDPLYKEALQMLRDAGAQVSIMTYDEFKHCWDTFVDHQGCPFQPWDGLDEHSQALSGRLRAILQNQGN

[18] = target: Troponin, cardiac muscle (Homo sapiens, UniProt P19429+P45379+P63316); test: Fluorescence-based biochemical high throughput dose response assay for activators of the calcium sensitivity of cardiac Regulated Thin Filaments (RTF). [Related pubchem assays (depositor defined):AID493008, AID493018, AID504382, AID504383]; type: protein-complex assay
[19] = target: DNA dC->dU-editing enzyme APOBEC-3G (Homo sapiens, UniProt Q9HC16); type: functional;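 also: Dose-response counterscreen measuring inhibition of APOBEC3G DNA deaminase activity, run while confirming APOBEC3A inhibitors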
Sequence of DNA dC->dU-editing enzyme APOBEC-3G (Q9HC16 whole entry): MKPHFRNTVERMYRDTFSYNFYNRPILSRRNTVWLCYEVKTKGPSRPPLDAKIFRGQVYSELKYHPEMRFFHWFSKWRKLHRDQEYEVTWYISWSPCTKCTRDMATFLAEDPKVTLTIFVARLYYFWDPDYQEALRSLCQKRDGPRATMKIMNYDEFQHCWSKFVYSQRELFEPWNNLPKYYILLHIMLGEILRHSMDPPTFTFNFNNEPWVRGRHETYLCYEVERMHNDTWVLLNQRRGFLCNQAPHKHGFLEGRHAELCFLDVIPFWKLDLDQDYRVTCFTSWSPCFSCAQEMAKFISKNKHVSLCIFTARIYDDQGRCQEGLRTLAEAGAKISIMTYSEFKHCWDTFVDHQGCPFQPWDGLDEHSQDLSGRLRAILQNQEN

[20] = target: G-protein coupled receptor 55 (Homo sapiens, UniProt Q9Y2T6); test: GPR55 antagonists, SAR follow-up, counter-screen for GPR35 antagonist project, imaging, image-based (AID 2397); type: functional
Sequence of G-protein coupled receptor 55 (Q9Y2T6 whole entry): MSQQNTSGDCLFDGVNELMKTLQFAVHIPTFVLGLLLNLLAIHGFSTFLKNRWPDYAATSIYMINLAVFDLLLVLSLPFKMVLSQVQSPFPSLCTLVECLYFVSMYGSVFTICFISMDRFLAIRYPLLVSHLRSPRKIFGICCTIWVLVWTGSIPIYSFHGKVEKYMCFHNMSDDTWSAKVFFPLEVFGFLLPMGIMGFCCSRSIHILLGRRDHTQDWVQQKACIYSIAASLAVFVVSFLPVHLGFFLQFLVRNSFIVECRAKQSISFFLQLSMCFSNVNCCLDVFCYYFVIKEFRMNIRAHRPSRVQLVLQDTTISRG

[21] = tested on: INS1; test: beta cell apoptosis inhibitors, cytokine rescue, dose response, luminescence, retest (AID 449756); type: functional, cell-based; details: Rattus norvegicus;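 also: cell death triggered by IL-1 beta plus TNF-alpha plus IFN-gamma mixture; protective hits raise ATP signal compared with cytokine alone wells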
[22] = target: T5, Mannose-6-phosphate isomerase (Homo sapiens, UniProt P34949); test: PMI enzyme inhibitors, confirmation, biochemical, fluorescence intensity (AID 1535)
T5 sequence (P34949 whole entry): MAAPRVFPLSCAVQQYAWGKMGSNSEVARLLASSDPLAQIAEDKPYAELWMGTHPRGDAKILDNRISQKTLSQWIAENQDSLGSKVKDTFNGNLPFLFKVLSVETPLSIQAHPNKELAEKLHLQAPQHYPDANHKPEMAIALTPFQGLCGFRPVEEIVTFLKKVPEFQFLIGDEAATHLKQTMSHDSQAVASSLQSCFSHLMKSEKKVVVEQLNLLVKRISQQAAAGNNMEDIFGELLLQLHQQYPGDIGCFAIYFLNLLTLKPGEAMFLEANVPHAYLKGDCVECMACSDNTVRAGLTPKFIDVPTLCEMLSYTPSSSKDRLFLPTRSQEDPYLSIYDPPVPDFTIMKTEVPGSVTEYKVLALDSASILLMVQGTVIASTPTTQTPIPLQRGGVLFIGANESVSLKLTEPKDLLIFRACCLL

[23] = target: Phosphomannomutase 2 (Homo sapiens, UniProt O15305); test: Counter screen SAR assay for PMM2 inhibitors via a fluorescence intensity assay. [Related pubchem assays (depositor defined):AID1545, AID1574]
Sequence of Phosphomannomutase 2 (O15305 whole entry): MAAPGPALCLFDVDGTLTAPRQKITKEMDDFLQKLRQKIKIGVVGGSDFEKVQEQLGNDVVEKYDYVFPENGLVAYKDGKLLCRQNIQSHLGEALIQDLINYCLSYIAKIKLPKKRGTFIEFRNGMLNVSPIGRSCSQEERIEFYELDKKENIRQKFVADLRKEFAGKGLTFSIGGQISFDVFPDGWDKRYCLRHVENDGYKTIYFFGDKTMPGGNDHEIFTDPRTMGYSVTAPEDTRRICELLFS

CC(C)CN1CC2(CCN(C(=O)c3csnn3)CC2)C1
AC50 [1]: inactive

CCC(C)(C(=O)NC1CCCC1)N(Cc1cccs1)C(=O)c1ccccn1 (stereo not drawn)
IC50 [2]: > 32 µM (inactive) | EC50 [3]: > 32 µM (inactive) | EC50 [4]: > 32 µM (inactive) | EC50 [5]: 1.86 µM | EC50 [6]: 2.13 µM | EC50 [7]: 2.07 µM (active) | EC50 [8]: > 32 µM (inactive) | EC50 [9]: > 32 µM (inactive) | IC50 [10]: > 32 µM (inactive) | IC50 [11]: > 32 µM (inactive) | EC50 [12]: 0.806 µM (active) | IC50 [13]: > 32 µM (inactive)

C=CCn1c(C)c(/C=C/c2cc[n+](C)cc2)c2ccccc21
IC50 [14]: 1.97 µM (active) | EC50 [15]: 0.69 µM (active) | EC50 [16]: > 60 µM (not active) | IC50 [17]: > 100 µM (inactive) | EC50 [18]: 1.88 µM (active) | IC50 [19]: 16.3 µM (active) | IC50 [20]: 2.79 µM (active) | AC50 [21]: 6.54 µM (active)

Clc1nss/c1=N\c1nncs1
IC50 [22]: 3.1 µM (active) and 2.3 µM (active) | IC50 [23]: > 100 µM (inactive)
